Measurements published in a melting point compilation (Tetko et al.; mined from patent text by program, amines drawn as free bases though some values may be those of a salt).

Point of comparison: `COC(=O)COc1ncccc1Oc1cc(NC(=O)CC(=O)C(F)(F)F)c(F)cc1Cl`, melting point 159 °C. Against it:
- OC(c1ccc(Oc2ccc(Cl)cc2Cl)cc1)C(F)n1cncn1 (stereo not drawn) — lower, 107 to 108 °C
- Cc1cc(Cl)ccc1NS(=O)(=O)c1cc(S(=O)(=O)Nc2ccc(Cl)cc2C)c2cc(O)ccc2c1 — lower, 140 to 142 °C
- CCCCOc1ncc(C(C)=O)cc1-c1nc2c(CC)n(C3CCN(C(=O)OC(C)(C)C)CC3)nc2c(=O)[nH]1 — higher, 194 to 195 °C
- COc1cc2c(cc1OC(=O)C=Cc1ccccc1)C1Cc3c(Cl)cc(OC)c(OC(=O)C=Cc4ccccc4)c3CN1CC2 (stereo not drawn) — higher, 240 to 242 °C
- Cc1ccc(C(=O)c2ccc(Cc3c(Cl)cc([N+](=O)[O-])cc3Cl)cc2)cn1 — lower, 121 to 123 °C
- COC(=O)Cn1cccc(O)c1=O — lower, 141 to 142 °C
- O=C(Nc1ccc(C(F)(F)F)cc1)C1=NN(c2ccc(Cl)nn2)C(c2ccc(F)cc2)C1 (stereo not drawn) — higher, 200 to 202 °C
- Cc1cccnc1NC(=O)Nc1cccc2c1C1CC(=O)CCN1C2=O (stereo not drawn) — higher, > 260 °C
- O=C(Nc1ccccc1S(=O)(=O)F)NC1CCCCC1 — higher, 177 °C
- C[Si](C)(C)c1sc(C=O)cc1Oc1ccccc1 — lower, 120 to 122 °C
- Cc1ccc(SC(CCCCCc2ccc(Cl)cc2)C(=O)O)cc1 (stereo not drawn) — lower, 58 to 61 °C
- Nc1cc(-c2nc3ccccn3c2Br)c(F)cc1F — lower, 137 °C
- N#Cc1c(N2CCc3ccccc3CC2)nc(C2CC2)[nH]c1=O — higher, > 200 °C
- CCOC(=O)c1c(-c2ccc(Cl)s2)ccnc1C(C(=O)OCC)c1cc(OC)cc(OC)n1 (stereo not drawn) — lower, 127 to 132 °C
- CN(C)CCc1nnc2n1-c1ccc(Cl)cc1C(c1ccccc1)NC2 (stereo not drawn) — lower, 131 to 137 °C
- CCCc1nc2c(N)nc3cc(Oc4ccc([N+](=O)[O-])cc4)ccc3c2n1CC(C)C — higher, 209 to 211 °C
- CNC(=O)c1ccc(C2C(C(=O)c3ccc(C)cc3)=C(O)C(=O)N2c2ncc(S(=O)(=O)c3ccc([N+](=O)[O-])cc3)s2)cc1 (stereo not drawn) — higher, 195 to 197 °C
- CCC(=O)c1cc(-c2ccccc2)no1 — lower, 111 to 112 °C
- COc1c(C)c2c(c(OC(C)=O)c1C/C=C/c1c(C)cccc1C(=O)O)C(=O)OC2 — higher, 180 to 183 °C
- S=c1[nH]c2cccc(OCCNCc3cccc4ccccc34)c2[nH]1 — higher, 191 to 193 °C
- Cc1cc(Br)cnc1CCCCNC1=NS(=O)N=C1N (stereo not drawn) — higher, 188 to 190 °C
- C=CCNC(=S)N1CCc2[nH]cnc2C1CC (stereo not drawn) — higher, 205 °C
- C=Cc1cc(S(=O)(=O)c2ccc(N)cc2)cc(N2CCCC2)n1 — higher, 181 to 182 °C
- CCOc1nn(CCOc2ccccc2CC(=O)O)cc1C(=O)NCc1ccc(Cl)cc1Cl — higher, 167 to 169 °C
- CON(C)C(=O)c1ccc(-c2ccc(C)cc2)o1 — lower, 54 to 58 °C
- CCOC(=O)C(NC(=O)c1ccccc1Cl)(c1nc(OC)cc(OC)n1)C(C)C (stereo not drawn) — lower, 94 to 95 °C
- N#CC1CN1OCc1ccc(Cl)cc1 (stereo not drawn) — lower, 45 to 48 °C
- NC(=O)OCCn1cc(C(=O)O)c(=O)c2cc(F)c(N3CCNCC3)c(F)c21 — higher, 204 to 206 °C
- Cc1cc(-c2nnc3c4ccccc4c(OCc4ncn(C(C)C)n4)nn23)no1 — higher, 179 to 181 °C
- CC(=O)N(c1ccccc1)c1ccccc1-c1ccc(I)cc1 — lower, 135 to 136 °C
- CC(C)C[C@H](NC(=O)OCc1ccccc1)C(=O)N[C@@H](Cc1ccccc1)C(=O)CSCCN(C)C — lower, 67 to 69 °C
- CCOC(=O)C1=C(COC)NC(COC)=C(C(=O)OCC)C1c1ccccc1C(F)(F)F — lower, 133 to 134 °C
- CN(C)C1CCN(c2nc(N3CCOCC3)c3ncnc(N(CC(=O)O)Cc4ccccc4)c3n2)CC1 — lower, 151 to 155 °C
- CCCCCC(=O)c1c(CBr)nc2cc(OC)c(OC)cc2c1-c1ccc(OC)c(OC)c1 — lower, 146 to 147 °C
- O=C(NCc1ccc2cc(O)ccc2c1)c1cc2ccccc2o1 — higher, 200 to 202 °C
- CC(C)(CNC(=O)C(C)(C)CCC(=O)O)SN=O — lower, 100 to 101 °C
- C=CCc1c(-c2cc(=O)c3c(O)cc(OCc4ccccc4)cc3o2)ccc(OC)c1O — higher, 234 °C
- Cc1ncc2cc(-c3ccc(F)cc3)c(N)nc2n1 — higher, 252 to 254 °C
- CC(=O)CNC1(c2ccc(OCCCN(C)C3CCCCC3)cc2)Sc2ccccc2N(C)C1=O (stereo not drawn) — lower, 119 to 120 °C
- Cc1cc2c(cc1C)C(C(F)(F)F)(C(F)(F)C(F)(F)F)c1cc(C)c(C)cc1O2 — lower, 139 to 140 °C
- CCOC(=O)CC(=O)COCC1=C(C(=O)OCC)C(c2ccccc2Cl)C(C(=O)OC)=C(C)N1 (stereo not drawn) — lower, 88 to 89 °C
- CCCc1cc2c(s1)[C@@H](O)[C@H]1C[C@]2(O)C(=O)O1 — lower, 120 to 125 °C
- COC(=O)c1cc(N(CCO)CCO)c(S(C)(=O)=O)cc1[N+](=O)[O-] — lower, 99 to 100 °C
- O=Cc1cc2n(n1)-c1ccc(Cl)cc1C(c1ccccc1)=NC2 — higher, 170 to 172 °C
- CSC1=NC=C(I)C(c2nnn(C)n2)(C(F)(F)F)N1 (stereo not drawn) — lower, 113 to 118 °C
- Cc1nn(-c2cc(Oc3ccc(O)cn3)c(Cl)cc2F)c(=O)n1C(F)F — higher, 179 to 181 °C
- Cc1nn2c(-c3ccc(Cl)cc3Cl)cccc2c1[N+](=O)[O-] — lower, 146 to 150 °C
- CCCc1nc2c(N)nc3cc(Oc4ccccc4C(=O)OC)ccc3c2n1CC(C)C — higher, 167 to 168 °C
- CCCc1c(OCCCSc2c(F)cccc2C(=O)CCC(=O)O)ccc(C(C)=O)c1O — lower, 115 to 116 °C
- CCC(COC(C)=O)Nc1c(-c2c(F)cc(F)cc2F)c(Cl)nc2ncnn12 (stereo not drawn) — lower, 39 to 42 °C
- CC(=O)N1CCc2cc(S(=O)(=O)n3c(CCC(=O)O)cc4cc(C(F)(F)F)ccc43)ccc21 — higher, 205 to 207 °C
- C=CCN(CCC)S(=O)(=O)NC(=O)c1cc(N)c(F)cc1Cl — lower, 104 to 106 °C
- CC(C)(C)c1ccc(C(=O)c2ccc3n2Cc2ccccc2N(C(=O)c2ccc(C4CCCCC4)cc2)C3)cc1 — lower, 143 to 145 °C
- CC1COc2c(N3CCNC(c4ccccc4)C3)c(F)cc3c(=O)c(C(=O)O)cn1c23 (stereo not drawn) — higher, 238 to 244 °C
- O=c1[nH]c2ccc(C(O)CN3CCC(O)(c4ccccc4)CC3)cc2o1 (stereo not drawn) — higher, 175 to 177 °C
- C=CCNC(=O)N1CC(Oc2ccc(C(F)(F)F)cc2)C1 — lower, 91 to 92.5 °C
- CC(=O)N(CCOc1cccc2ccccc12)c1ccc(C(=O)O)cc1 — higher, 182 to 183 °C
- CC(C)n1nc(COc2ccccc2CC(=O)O)cc1OCc1ccc2ccccc2n1 — lower, 116 to 117 °C
- CC1(O)NC(=O)OC12CCNCC2 (stereo not drawn) — higher, 192 to 194 °C
- O=C(COC1CCCCO1)c1ccc(Cl)cc1 (stereo not drawn) — lower, 57 °C
- CCOC(=O)c1cc(O)c2c(n1)c(C)cc1c(O)cc(C(=O)OCC)nc12 — higher, 198 to 200 °C
- Cc1cccc(C2(O)CCN(c3ccc(O)nn3)CC2)c1 — higher, 265 °C
- NCc1cccc(O)c1 — lower, 79 to 81 °C
- CC1(CNC(=O)CC2CN=C(c3cc4cc(Oc5ccc(S(C)(=O)=O)nc5)cc(OC5CCOCC5)c4[nH]3)S2)COC1 (stereo not drawn) — higher, 189 to 190 °C
- O=S1(=O)CCN(CC#Cc2cnc3c(c2)N(Cc2cc(Cl)ccc2Cl)CCN3)CC1 — higher, > 200 °C
- CC(C)c1ccc(-c2ccc(Sc3ccccc3)s2)cc1 — lower, 61 to 63 °C
- CC(C)(C)OC(=O)NCCc1ccc(Oc2c(Cl)cnc(C(F)(F)F)c2Cl)cc1 — lower, 137 to 140 °C
